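The compound was tested at five concentrations on cells cultured in 96-well plates, with a 48-hour exposure period. GI50 marks 50% less growth.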 Activity calls are given as the source filed them. No stated cut-off is given here; in the data, active = GI50 up to about 1.1 µM and inactive = higher.
What was measured:
Experiment in all cases: DTP human tumour cell line panel, 48 h
KM-20L2 = system: KM-20L2
CCRF-CEM = system: CCRF-CEM
LXFL 529 = system: LXFL 529
NCI-H23 = system: NCI-H23
TK-10 = system: TK-10
OVCAR-5 = system: OVCAR-5
RXF 631 = system: RXF 631
IGROV-1 = system: IGROV-1
SK-OV-3 = system: SK-OV-3
OVCAR-8 = system: OVCAR-8
UACC-257 = system: UACC-257
SF-295 = system: SF-295
NCI-H226 = system: NCI-H226
NCI-H522 = system: NCI-H522
K562 = system: K562
NCI-H460 = system: NCI-H460
DMS-273 = system: DMS-273
M14 = system: M14
DLD-1 = system: DLD-1
Malme-3M = system: Malme-3M
M19-MEL = system: M19-MEL
ACHN = system: ACHN
HOP-92 = system: HOP-92
HOP-18 = system: HOP-18
SW-620 = system: SW-620
EKVX = system: EKVX
A498 = system: A498
DMS-114 = system: DMS-114
HL-60 = system: HL-60
SK-MEL-28 = system: SK-MEL-28
LOX IMVI = system: LOX IMVI
SNB-75 = system: SNB-75
UO-31 = system: UO-31
HCT-116 = system: HCT-116
SR = system: SR
A549 = system: A549
786-0 = system: 786-0
UACC-62 = system: UACC-62
OVCAR-3 = system: OVCAR-3
COLO 205 = system: COLO 205
KM12 = system: KM12
HCC 2998 = system: HCC 2998
HCT-15 = system: HCT-15
SK-MEL-5 = system: SK-MEL-5
SNB-19 = system: SNB-19
SN12C = system: SN12C
MOLT-4 = system: MOLT-4
SF-268 = system: SF-268
SF-539 = system: SF-539
HT-29 = system: HT-29
SNB-78 = system: SNB-78
OVCAR-4 = system: OVCAR-4
U-251 = system: U-251
HOP-62 = system: HOP-62
RXF 393 = system: RXF 393
RPMI-8226 = system: RPMI-8226
XF498 = system: XF498
CAKI-1 = system: CAKI-1
SK-MEL-2 = system: SK-MEL-2

Measured: GI50

N#Cc1c(-c2ccccc2)cc(-c2ccc(N)cc2)[nH]c1=O
> 100 µM: HCT-15
inactive: KM-20L2 > 100 µM | CCRF-CEM > 100 µM | LXFL 529 > 100 µM | NCI-H23 > 100 µM | TK-10 > 100 µM | OVCAR-5 > 100 µM | RXF 631 > 100 µM | IGROV-1 > 100 µM | SK-OV-3 > 100 µM | OVCAR-8 > 100 µM | UACC-257 > 100 µM | SF-295 > 100 µM | NCI-H226 > 100 µM | NCI-H522 > 100 µM | K562 > 100 µM | NCI-H460 > 100 µM | DMS-273 > 100 µM | M14 > 100 µM | DLD-1 > 100 µM | Malme-3M > 100 µM | M19-MEL > 100 µM | ACHN > 100 µM | HOP-92 > 100 µM | HOP-18 > 100 µM | SW-620 > 100 µM | EKVX > 100 µM | A498 > 100 µM | DMS-114 > 100 µM | HL-60 > 100 µM | SK-MEL-28 > 100 µM | LOX IMVI > 100 µM | SNB-75 25.2 µM | UO-31 > 100 µM | HCT-116 > 100 µM | SR > 100 µM | A549 > 100 µM | 786-0 > 100 µM | UACC-62 > 100 µM | OVCAR-3 > 100 µM | COLO 205 > 100 µM | KM12 > 100 µM | HCC 2998 > 100 µM | SK-MEL-5 > 100 µM | SNB-19 > 100 µM | SN12C > 100 µM | MOLT-4 > 100 µM | SF-268 > 100 µM | SF-539 > 100 µM | HT-29 > 100 µM | SNB-78 > 100 µM | OVCAR-4 > 100 µM | U-251 > 100 µM | HOP-62 > 100 µM | RXF 393 > 100 µM | RPMI-8226 > 100 µM

CNS(=O)(=O)NNS(=O)(=O)c1ccc(OC)cc1
inactive: KM-20L2 > 100 µM | CCRF-CEM > 100 µM | LXFL 529 > 100 µM | NCI-H23 > 100 µM | RXF 631 > 100 µM | IGROV-1 > 100 µM | SK-OV-3 > 100 µM | OVCAR-8 > 100 µM | UACC-257 > 100 µM | SF-295 > 100 µM | NCI-H522 > 100 µM | K562 > 100 µM | NCI-H460 > 100 µM | DMS-273 > 100 µM | M14 > 100 µM | XF498 > 100 µM | DLD-1 > 100 µM | Malme-3M > 100 µM | M19-MEL > 100 µM | ACHN > 100 µM | CAKI-1 > 100 µM | SW-620 > 100 µM | EKVX > 100 µM | A498 > 100 µM | DMS-114 > 100 µM | HL-60 > 100 µM | LOX IMVI > 100 µM | SNB-75 > 100 µM | UO-31 > 100 µM | HCT-116 > 100 µM | SR > 100 µM | A549 > 100 µM | 786-0 > 100 µM | UACC-62 > 100 µM | OVCAR-3 > 100 µM | COLO 205 > 100 µM | KM12 > 100 µM | HCC 2998 > 100 µM | SK-MEL-5 > 100 µM | SNB-19 > 100 µM | MOLT-4 > 100 µM | SF-268 > 100 µM | SF-539 > 100 µM | HT-29 > 100 µM | OVCAR-4 > 100 µM | U-251 > 100 µM | HOP-62 > 100 µM | RXF 393 > 100 µM | RPMI-8226 > 100 µM | SK-MEL-2 > 100 µM
> 100 µM: HCT-15
